In patent publication US9657057B2, “Dipeptide and tripeptide epoxy ketone protease inhibitors” (Onyx Therapeutics, Inc., priority 2013, dated 2017):
Values after ≈ are worked out from the molar mass of the structure shown. Where two headings read alike, the source gives them in different places. Values belong to the molecule of their own block, whether it stands above or below them.

Tests used:
LMP2 = target: T1, LMP2 (Homo sapiens, UniProt P28065+P40306); assay: ProCISE proteasome subunit assay, LMP2; format: biochemical
T1 construct: endogenous in cells; host or cells: MOLT-4
Procedure: (§1) This assay was used to assess the inhibitory activity against each of LMP2, LMP7, MECL1, β1, β2, and β5. Briefly, test compounds were serially diluted in DMSO at 100× concentration, then diluted to 10× in aqueous hypotonic lysis buffer. Lysate from the human acute lymphoblastic leukemia cell line, MOLT-4, was treated for 1 hour at 25° C. with compound at a final 1× concentration. […] Following this, lysate was denatured in guanidine hydrochloride, and subunits bound to probe were isolated with streptavidin-conjugated sepharose beads. Individual subunits were probed with subunit-specific primary antibodies, followed by HRP-conjugated secondary antibodies. A chemiluminescent substrate was used to generate signal associated with HRP binding, which was detected on a plate reader. Luminescent signal was normalized to protein content, then, percent activity calculated relative to DMSO-treated controls to generate IC50 curves.

LMP7 = target: T2, LMP7 (Homo sapiens, UniProt P20618+P28062); assay: ProCISE proteasome subunit assay, LMP7; format: biochemical; conditions: MOLT4 lysate Hu 1 h
T2 construct: endogenous in cells; host or cells: MOLT-4
Outline: (§2)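 MOLT-4 cell lysate was incubated with compound for 1 h at 25° C, then a subunit-binding probe was applied; probe-bound subunits were pulled down on streptavidin beads after guanidine denaturation and detected with subunit-specific antibodies by HRP chemiluminescence. Signal was normalized to protein and expressed as percent of DMSO control to fit IC50.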

Solubility pH 7 = format: physicochemical; conditions: pH 7, aqueous buffer
β5 = target: T3, β5 (Homo sapiens, UniProt P20618+P28074); assay: ProCISE proteasome subunit assay, β5; format: biochemical; conditions: MOLT4 lysate Hu 1 h
T3 construct: endogenous in cells; host or cells: MOLT-4
Outline: as §2

[1] = target: c20S (constitutive 20S proteasome) (Homo sapiens, UniProt P20618+P28074); assay: 20S proteasome assay, chymotrypsin-like activity (LLVY), c20S; format: biochemical; conditions: LLVY c20S Hu 1 h CONT: IC50 (nM), succinyl-Leu-Leu-Val-Tyr-AMC
Text: (§3) Assay buffer consisted of TE buffer [20 mmol/L Tris (pH 8.0), 0.5 mmol/L EDTA] with (20S) or without (cell lysate) 0.03% SDS. Reactions were initiated by enzyme or lysate addition and monitored for AMC product formation at 27jC with a plate-based spectofluorometer (Tecan).

[2] = target: i20S (20S immunoproteasome) (Homo sapiens, UniProt P20618+P28062); assay: 20S proteasome assay, chymotrypsin-like activity (LLVY), i20S; format: biochemical; conditions: LLVY i20S Hu 1 h CONT: IC50 (nM), succinyl-Leu-Leu-Val-Tyr-AMC
Text: as §3

β2 = β2 (Homo sapiens, UniProt P49720+Q99436); assay: ProCISE proteasome subunit assay, β2; format: biochemical; conditions: MOLT-4 lysate, 1 hour at 25° C.
Procedure: as §1

MECL1 = MECL1 (Homo sapiens, UniProt P40306+P49720); assay: ProCISE proteasome subunit assay, MECL1; format: biochemical; conditions: MOLT-4 lysate, 1 hour at 25° C.
Procedure: as §1

β1 = β1 (Homo sapiens, UniProt P28072+Q99436); assay: ProCISE proteasome subunit assay, β1; format: biochemical; conditions: MOLT-4 lysate, 1 hour at 25° C.
Procedure: as §1

[3] = ProCISE LMP2 MOLT4 lysate Hu 1 h CONT: IC50 (nM), MOLT4 lysate Hu 1 h

SMILES: COc1ccc(C[C@H](NC(=O)[C@@](C)(O)C(F)(F)F)C(=O)N[C@@H](Cc2ccccc2)C(=O)[C@@]2(C)CO2)cc1 [Compound C-3007, (R)-3,3,3-Trifluoro-2-hydroxy-N—((S)-3-(4-methoxyphenyl)-1-(((S)-1-((R)-2-methyloxiran-2-yl)-1-oxo-3-phenylpropan-2-yl)amino)-1-oxopropan-2-yl)-2-methylpropanamide]
IC50 (LMP2; MOLT4 lysate Hu 1 h): 274 nM
IC50 (LMP7): 3.46 µM
solubility (Solubility pH 7): 0.0867 mg/mL (≈ 166 µM)
IC50 (β5): 9.84 µM

SMILES: C[C@H](NC(=O)c1cccc(=O)[nH]1)C(=O)N[C@@H](CC1CCCC1)C(=O)[C@@]1(C)CO1 [Compound C-3018, N—((S)-1-(((S)-3-Cyclopentyl-1-((R)-2-methyloxiran-2-yl)-1-oxopropan-2-yl)amino)-1-oxopropan-2-yl)-6-oxo-1,6-dihydropyridine-2-carboxamide]
IC50 (LMP2; MOLT4 lysate Hu 1 h): 24.9 nM
solubility (Solubility pH 7): 0.516 mg/mL (≈ 1320 µM)

SMILES: COc1ccc(C[C@H](NC(=O)c2ccnc(N3CCOCC3)n2)C(=O)N[C@@H](Cc2ccccc2)C(=O)[C@@]2(C)CO2)cc1 [Compound C-3001]
IC50 (LMP2; MOLT4 lysate Hu 1 h): 526 nM
IC50 (LMP7): 4.77 µM
IC50 (β5): 5.59 µM

SMILES: C[C@H](NC(=O)c1cccc(=O)[nH]1)C(=O)N[C@@H](Cc1ccccc1)C(=O)[C@@]1(C)CO1 [Compound C-3016, N—((S)-1-(((S)-1-((R)-2-Methyloxiran-2-yl)-1-oxo-3-phenylpropan-2-yl)amino)-1-oxopropan-2-yl)-6-oxo-1,6-dihydropyridine-2-carboxamide]
IC50 (LMP2; MOLT4 lysate Hu 1 h): 55 nM
solubility (Solubility pH 7): 7.52 mg/mL (≈ 18900 µM)

SMILES: COc1ccc(C[C@H](NC(=O)c2cccc(=O)[nH]2)C(=O)N[C@@H](CC2CCCC2)C(=O)[C@@]2(C)CO2)cc1 [Compound C-3014, N—((S)-1-(((S)-3-Cyclopentyl-1-((R)-2-methyloxiran-2-yl)-1-oxopropan-2-yl)amino)-3-(4-methoxyphenyl)-1-oxopropan-2-yl)-6-oxo-1,6-dihydropyridine-2-carboxamide]
IC50 (LMP2; MOLT4 lysate Hu 1 h): 34.9 nM
solubility (Solubility pH 7): 0.0694 mg/mL (≈ 140 µM)

SMILES: COc1ccc(C[C@H](NC(=O)c2cccc(=O)[nH]2)C(=O)N[C@@H](CC2=CCCC2)C(=O)[C@@]2(C)CO2)cc1 [Compound C-3015, N—((S)-1-(((S)-3-(Cyclopent-1-en-1-yl)-1-((R)-2-methyloxiran-2-yl)-1-oxopropan-2-yl)amino)-3-(4-methoxyphenyl)-1-oxopropan-2-yl)-6-oxo-1,6-dihydropyridine-2-carboxamide]
IC50 (LMP2; MOLT4 lysate Hu 1 h): 37.6 nM
solubility (Solubility pH 7): 0.143 mg/mL (≈ 291 µM)

SMILES: COc1ccc(C[C@H](NC(=O)[C@H]2CCCC(=O)N2)C(=O)N[C@@H](Cc2ccccc2)C(=O)[C@@]2(C)CO2)cc1 [Compound C-3009, (R)—N—((S)-3-(4-Methoxyphenyl)-1-(((S)-1-((R)-2-methyloxiran-2-yl)-1-oxo-3-phenylpropan-2-yl)amino)-1-oxopropan-2-yl)-6-oxopiperidine-2-carboxamide]
IC50 [1]: 87800 nM
IC50 (LMP2; MOLT4 lysate Hu 1 h): 517 nM
IC50 (LMP7): 4.57 µM
IC50 (β5): 8.29 µM
IC50 [2]: 9890 nM

SMILES: COc1ccc(C[C@H](NC(=O)[C@@H](C)NC(=O)C[C@@H](C)O)C(=O)N[C@@H](CC2CCCC2)C(=O)[C@@]2(C)CO2)cc1 [Compound C-2042, (R)—N—((R)-1-(((S)-1-(((S)-3-cyclopentyl-1-((R)-2-methyloxiran-2-yl)-1-oxopropan-2-yl)amino)-3-(4-methoxyphenyl)-1-oxopropan-2-yl)amino)-1-oxopropan-2-yl)-3-hydroxybutanamide]
IC50 [1]: 9450 nM
IC50 (LMP7): 0.621 µM
solubility (Solubility pH 7): 1.83 mg/mL (≈ 3450 µM)
IC50 (β5): 5.92 µM
IC50 [2]: 336 nM

SMILES: COc1ccc(C[C@H](NC(=O)[C@@H](C)NC(=O)c2cccnc2)C(=O)N[C@@H](CC2CCCC2)C(=O)[C@@]2(C)CO2)cc1 [Compound C-2032, N—((R)-1-(((S)-1-(((S)-3-cyclopentyl-1-((R)-2-methyloxiran-2-yl)-1-oxopropan-2-yl)amino)-3-(4-methoxyphenyl)-1-oxopropan-2-yl)amino)-1-oxopropan-2-yl)nicotinamide]
IC50 [1]: 1890 nM
IC50 (LMP7): 0.452 µM
solubility (Solubility pH 7): 0.172 mg/mL (≈ 313 µM)
IC50 (β5): 4.05 µM
IC50 [2]: 107 nM

The next lines start with the values.

IC50 [1]: 64400 nM
IC50 (LMP2; MOLT4 lysate Hu 1 h): 471 nM
IC50 (LMP7): 19.7 µM
solubility (Solubility pH 7): 0.0555 mg/mL (≈ 103 µM)
IC50 (β5): > 250 µM
IC50 [2]: 19500 nM
SMILES: COc1ccc(C[C@H](NC(=O)[C@@H](C)NC(=O)c2ncc[nH]2)C(=O)N[C@@H](CC2CCCC2)C(=O)[C@@]2(C)CO2)cc1 [Compound C-2034, N—((R)-1-(((S)-1-(((S)-3-cyclopentyl-1-((R)-2-methyloxiran-2-yl)-1-oxopropan-2-yl)amino)-3-(4-methoxyphenyl)-1-oxopropan-2-yl)amino)-1-oxopropan-2-yl)-1H-imidazole-2-carboxamide]

IC50 (LMP2; [3]): 33 nM
solubility (Solubility pH 7): 6.64 mg/mL (≈ 16100 µM)
SMILES: C[C@]1(C(=O)[C@H](Cc2ccccc2)NC(=O)[C@H](CO)NC(=O)c2cccc(=O)[nH]2)CO1 [Compound C-3017, N—((S)-3-Hydroxy-1-(((S)-1-((R)-2-methyloxiran-2-yl)-1-oxo-3-phenylpropan-2-yl)amino)-1-oxopropan-2-yl)-6-oxo-1,6-dihydropyridine-2-carboxamide]

IC50 (β2): > 250 µM
IC50 (LMP2; [3]): 109 nM
IC50 (LMP2; ProCISE, MOLT-4 lysate, 1 hour at 25° C., read-out: LMP2): 109 nM
IC50 (MECL1): > 250 µM
IC50 (β1): 99.2 µM
SMILES: COc1ccc(C[C@H](NC(=O)c2cccc(=O)[nH]2)C(=O)N[C@@H](Cc2ccccc2)C(=O)[C@@]2(C)CO2)cc1 [Compound C-3008, N—((S)-3-(4-Methoxyphenyl)-1-(((S)-1-((R)-2-methyloxiran-2-yl)-1-oxo-3-phenylpropan-2-yl)amino)-1-oxopropan-2-yl)-6-oxo-1,6-dihydropyridine-2-carboxamide]

IC50 [1]: 316 nM
IC50 (LMP7): 0.0385 µM
solubility (Solubility pH 7): 0.16 mg/mL (≈ 286 µM)
IC50 (β5): 0.56 µM
IC50 [2]: 10.8 nM
SMILES: CC[C@@](C)(O)CC(=O)N[C@H](C)C(=O)N[C@@H](Cc1ccc(OC)cc1)C(=O)N[C@@H](CC1CCCC1)C(=O)[C@@]1(C)CO1 [Compound C-2052, (R)—N—((R)-1-(((S)-1-(((S)-3-cyclopentyl-1-((R)-2-methyloxiran-2-yl)-1-oxopropan-2-yl)amino)-3-(4-methoxyphenyl)-1-oxopropan-2-yl)amino)-1-oxopropan-2-yl)-3-hydroxy-3-methylpentanamide]

IC50 (LMP2; MOLT4 lysate Hu 1 h): 16.8 nM
solubility (Solubility pH 7): 0.639 mg/mL (≈ 1580 µM)
SMILES: C[C@]1(C(=O)[C@H](CC2CCCC2)NC(=O)[C@H](CO)NC(=O)c2cccc(=O)[nH]2)CO1 [Compound C-3019, N—((S)-1-(((S)-3-Cyclopentyl-1-((R)-2-methyloxiran-2-yl)-1-oxopropan-2-yl)amino)-3-hydroxy-1-oxopropan-2-yl)-6-oxo-1,6-dihydropyridine-2-carboxamide]
